Measurements taken from paper PMC9321663, “The DevTox Germ Layer Reporter Platform: An Assay Adaptation of the Human Pluripotent Stem Cell Test” (Toxics, 2022).
Where two headings read alike, the source gives them in different places.

Key:
[1] = tested on: SOX17 (endoderm marker) in RUES2-GLR cells; experiment: DevTox GLR-Endo assay: decrease in percent SOX17-positive cells (AEID 3094, Sox17_dn); conditions: for Emax / AC50: Homo sapiens; for DevTox-GLR Endo ACC: activity concentration at cutoff, SOX17-positive cells
Method: (§1) The total test chemical incubation period was 48 h.
(§2) Assay plate controls included non-differentiated pluripotent cells maintained in complete Essential 8 Flex medium (baseline control), endoderm differentiated cells (differentiation control), endoderm differentiated cells treated with DMSO (0.2%) (solvent control), and TGF-ß receptor inhibitor SB431542 (1 µM)-treated cells (developmental toxicant-positive control) (Figure S3). All experiments were completed with a minimum of four biological replicates (n = 4).
(§3) (Supplementary Materials).

RUES2-GLR cells = experiment: DevTox GLR-Endo assay: decrease in total cell count, cytotoxicity (AEID 3098, CellCount_dn); conditions: for Emax: Homo sapiens, read-out: Cell Count % Max Inhibition
Method: as §1, §2, §3

[2] = tested on: SOX17 (endoderm marker) in RUES2-GLR cells; experiment: DevTox GLR-Endo assay: increase in percent SOX17-positive cells (AEID 3093, Sox17_up); assay type: cell-based, human; conditions: for Emax: Homo sapiens
Method: as §1, §3

[3] = tested on: BRA (mesoderm marker) in RUES2-GLR cells; experiment: DevTox GLR-Endo assay: increase in percent BRA-positive cells (AEID 3096, Bra_up); assay type: cell-based, human; set-up: tp (winning model): unit not given here; conditions: for ga (winning model): tcpl plot AEID3096, gain parameter of winning curve fit (log concentration, µM axis); for ga (winning model) / tp (winning model): hit calls only; for tp (winning model): tcpl plot AEID3096, top of winning curve fit
Method: as §1, §3

[4] = tested on: SOX2 (ectoderm and pluripotency marker) in RUES2-GLR cells; experiment: DevTox GLR-Endo assay: increase in percent SOX2-positive cells (AEID 3095, Sox2_up); conditions: for AC50 / Emax: Homo sapiens; for AC50: read-out: ga (winning model); for Emax: read-out: tp (winning model);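 as to all read-outs here: cells exposed to test chemicals for 48 h in total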
[5] = cited from earlier work; for Development Toxicant Classification: Table S2; for Classification: developmental toxicant classification (Teratogen / Non-Teratogen) of reference and training chemicals, ref DOI per chemical: 10.1093/toxsci/kft239, 10.1093/toxsci/kfaa014, 10.1177/026119290203000204, 10.1038/s41598-020-59542-x; for DT Class.: developmental toxicant classification, chemicals common with quickPredict
[6] = read-out: DevTox % Max Inhibition
[7] = Table S2, SOX17-positive cells, cutoff 3*bmad
[8] = Table S2, percent SOX17-positive cells, 48 h exposure
[9] = tcpl plot AEID3093, maximum mean response, read-out: MAX_MEAN
[10] = tcpl plot AEID3093, maximum median response, read-out: MAX_MED
[11] = tcpl plot AEID3096, maximum mean response
[12] = tcpl plot AEID3096, maximum median response
[13] = tcpl plot AEID3095, maximum mean response
[14] = tcpl plot AEID3095, maximum median response
[15] = Table S2, percent SOX17-positive cells relative to DMSO
[16] = tcpl plot AEID3094, maximum mean response
[17] = tcpl plot AEID3094, maximum median response
[18] = Table S2, cell count relative to DMSO
[19] = tcpl plot AEID3093, maximum mean response
[20] = tcpl plot AEID3093, maximum median response
[21] = DevTox GLR-Endo prediction against developmental toxicant classification
[22] = read-out: maximum observed effect level class (% max inhibition)
[23] = read-out: ga (winning model), tcpl plot AEID3094, gain parameter of winning curve fit (log concentration, µM axis), hit calls only (converted)

Compound | Emax [1, 6] | Emax ([1]; read-out: MAX_MEAN) | Emax ([1]; read-out: MAX_MED) | Hit Call [1, 7] | DevTox ACC [1, 8] | HIT−CALL ([1]; tcpl plot AEID3094, COFF 20.3) | Emax (RUES2-GLR cells) | Cell Count ACC (RUES2-GLR cells; human, 48 h) | Emax [2, 9] | Emax [2, 10] | HIT−CALL ([2]; tcpl plot AEID3093, COFF 20.3) | HIT−CALL ([3]; tcpl plot AEID3096, COFF 0.774) | MAX_MEAN [3, 11] | MAX_MED [3, 12] | MAX_MEAN [4, 13] | MAX_MED [4, 14] | Emax ([1]; read-out: tp (winning model)) | further results
CC(=O)Nc1ccc(O)cc1 [Acetaminophen] | 10.5% | 11.3% | 10.5% | Negative | >200 µM | 0 | 13.1% | >200 µM | 11.3% | 10.3% | 0 | 0 | 0.829 Percent Activity | 0.865 Percent Activity | 0.992 Percent Activity | 0.603 Percent Activity |  | effect on SOX17-positive cells (in words) ([1]; 48 h exposure during directed endoderm differentiation): no observed effect
C=CC(N)=O [Acrylamide] |  |  |  | Negative | >200 µM | 0 |  |  |  |  | 0 | 1 | 1.03 Percent Activity | 1.06 Percent Activity | 0.47 Percent Activity | 0.417 Percent Activity |  | DevTox % Max Inhibition [1, 15]: 9.423%; MAX_MEAN [1, 16]: 8.79 Percent Activity; MAX_MED [1, 17]: 9.42 Percent Activity; Cell Count % Max Inhibition (RUES2-GLR cells; [18]): 16.9643%; MAX_MEAN [2, 19]: 6.64 Percent Activity; MAX_MED [2, 20]: 7.31 Percent Activity; ga (winning model) [3]: −6.98; tp (winning model) [3]: 0.908
CCCCOC(=O)c1ccc(O)cc1 [Butylparaben, 4−Hydroxybenzoic acid butyl ester] | 102% | 101% | 102% | Positive | 34.4685 µM | 1 | 91.8% |  | 8.67% | 10.2% | 0 |  |  |  | 4.14 Percent Activity | 4.42 Percent Activity | 102% | hit call designation (in words) [1, 21]: false positive; AC50 ([1]; read-out: ga (winning model)): 50.1 µM; Emax [1, 22]: 80 to 100%; DevTox-GLR Endo ACC ([1]; 48 h exposure): 34.47 µM; Development Toxicant Classification [5]: Negative; Classification [5]: Non-Teratogen; DT Class. [5]: Neg; AC50 [4]: 115 µM; Emax [4]: 6.25%
Oc1cc(O)c2c(c1)OC(c1ccc(O)c(O)c1)C(O)C2 (stereo not shown) [Cianidanol (Catechin)] |  |  |  |  |  |  |  |  |  |  |  |  |  |  |  |  |  | Classification [5]: Non-Teratogen
COC(=O)c1ccccc1C(=O)OC [Dimethyl Phthalate] | 6.7% | 7.41% | 6.7% | Negative | >200 µM | 0 | 11.9% |  | 6.35% | 7.43% | 0 | 0 | 0.821 Percent Activity | 0.835 Percent Activity | 1.15 Percent Activity | 0.556 Percent Activity |  | Cell Count ACC (RUES2-GLR cells; Table S2, 48 h exposure): >200 µM; HIT−CALL [4]: 0
OCCO [Ethylene Glycol] |  |  |  |  |  |  |  |  |  |  |  |  |  |  |  |  |  | DevTox % Max Inhibition [1]: 6.931%; DevTox ACC [1]: >200 µM; HIT−CALL [1]: 0; Hit Call [1]: Negative; MAX_MEAN [1]: 6.33; MAX_MED [1]: 6.93; hit call designation (in words) [1]: false negative; maximum observed effect level class (% max inhibition) [1]: weak (key: high (80–100% max inhibition); moderate (20–80% max inhibition); weak (0–20% max inhibition)); Cell Count % Max Inhibition (RUES2-GLR cells): 7.044%; Cell Count ACC (RUES2-GLR cells): >200 µM; HIT−CALL [2]: 0; MAX_MEAN [2]: 15.9; MAX_MED [2]: 16.8; HIT−CALL [3]: 0; MAX_MEAN [3]: 0.895; MAX_MED [3]: 0.908; HIT−CALL [4]: 0; MAX_MEAN [4]: 1.02; MAX_MED [4]: 0.539
Cc1ccc(NC(=O)c2ccc(CN3CCN(C)CC3)cc2)cc1Nc1nccc(-c2cccnc2)n1 [Imatinib] | 101% | 101% | 101% | Positive |  | 1 | 97.8% | 9.465 µM | 7.83% | 8.88% | 0 |  |  |  | 6.74 Percent Activity | 6.89 Percent Activity | 101% | AC50 [4]: 14.1 µM; Emax [4]: 6.56%
CC1=C(/C=C/C(C)=C/C=C/C(C)=C/CO)C(C)(C)CCC1 [Retinol] | 94.5% | 94.3% | 94.5% | Positive | 13.0451 µM | 1 | 97.3% | 12.6287 µM | 1.1% | 1.06% | 0 |  |  |  | 23.5 Percent Activity | 25.3 Percent Activity | 117% | hit call designation (in words) [1, 21]: false positive; AC50 [1, 23]: 33.9 µM; Emax [1, 22]: 80 to 100%; DevTox-GLR Endo ACC ([1]; 48 h exposure): 13.05 µM; DevTox-GLR Endo CC (RUES2-GLR cells; human, 48 h): 12.63 µM; Development Toxicant Classification [5]: Negative; Classification [5]: Non-Teratogen; DT Class. [5]: Neg; AC50 [4]: 46.8 µM; Emax [4]: 26%
NC(=O)c1ccc(-c2nc(-c3ccc4c(c3)OCO4)c(-c3ccccn3)[nH]2)cc1 [SB431542] |  |  |  |  |  |  |  |  |  |  |  |  |  |  |  |  |  | effect on SOX2 and SOX17 expression (in words) ([1]; 1 µM positive control, 48 h endoderm induction): loss of both SOX2 and SOX17
O=C(O)c1cc(/N=N/c2ccc(S(=O)(=O)Nc3ccccn3)cc2)ccc1O [Sulfasalazine] | 11.8% | 9.93% | 11.8% | Negative | >200 µM | 0 | 8.86% | >200 µM | 8.6% | 8.79% | 0 | 0 | 0.92 Percent Activity | 0.948 Percent Activity | 1.38 Percent Activity | 0.57 Percent Activity |  | 
CC(=O)CC(c1ccccc1)c1c(O)c2ccccc2oc1=O (stereo not shown) [Warfarin] | 26.9% | 26.8% | 26.9% | Positive | 93.3273 µM | 1 | 19.1% |  | 11.3% | 11.6% | 0 | 1 | 0.949 Percent Activity | 0.975 Percent Activity | 0.566 Percent Activity | 0.495 Percent Activity | 26.8% | AC50 [1, 23]: 81.3 µM; DevTox-GLR Endo ACC ([1]; 48 h exposure): 93.33 µM; Cell Count ACC (RUES2-GLR cells; Table S2, 48 h exposure): 197.749 µM; DevTox-GLR Endo CC (RUES2-GLR cells; concentration at cell count cutoff, 48 h exposure): 197.75 µM
D-Camphor |  |  |  | Negative | >200 µM | 0 |  |  |  |  | 0 | 1 | 0.906 Percent Activity | 0.891 Percent Activity | 0.902 Percent Activity | 0.451 Percent Activity |  | DevTox % Max Inhibition [1, 15]: 9.33%; MAX_MEAN [1, 16]: 8.81 Percent Activity; MAX_MED [1, 17]: 9.33 Percent Activity; Cell Count % Max Inhibition (RUES2-GLR cells; [18]): 7.562%; MAX_MEAN [2, 19]: 7.36 Percent Activity; MAX_MED [2, 20]: 11.6 Percent Activity; ga (winning model) [3]: −7; tp (winning model) [3]: 0.81; HIT−CALL [4]: 0
